The supplement of paper PMC10307832

Key:
Experiment in all cases: relative viability (nuclei count vs DMSO), 5 days (fraction); higher = more cells survive
[1] = compound: CCN1CCN(c2ccc(Nc3cc(N(C)C(=O)Nc4c(Cl)c(OC)cc(OC)c4Cl)ncn3)cc2)CC1 [BGJ398] + N=C(N)NC(=N)NCCc1ccccc1 [Phenformin] (partner 250 µM)
Summary of the method: (§1)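 Lung cancer cell lines, seeded in 1536-well plates, were treated the following day by pin tool with a single drug or with five library-drug doses (not always all listed) in √10 steps on top of a fixed anchor-drug dose. Cells were fixed and nuclei stained in one step after 5 days, and nuclei were counted. Relative viability is the nuclei count for treated wells divided by that for vehicle wells, reported as medians of duplicate plates.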

[2] = compound: CCN1CCN(c2ccc(Nc3cc(N(C)C(=O)Nc4c(Cl)c(OC)cc(OC)c4Cl)ncn3)cc2)CC1 [BGJ398] + CC(=O)c1c(C)c2cnc(Nc3ccc(N4CCNCC4)cn3)nc2n(C2CCCC2)c1=O [Palbociclib] (partner 0.5 µM)
Summary of the method: as §1

[3] = compound: CCN1CCN(c2ccc(Nc3cc(N(C)C(=O)Nc4c(Cl)c(OC)cc(OC)c4Cl)ncn3)cc2)CC1 [BGJ398] + CCNC(=O)c1noc(-c2cc(C(C)C)c(O)cc2O)c1-c1ccc(CN2CCOCC2)cc1 [Luminespib] (partner 0.01 µM)
Summary of the method: as §1

[4] = compound: C1=CC2=NC=CN=C2C=C1/C=C/3\C(=O)NC(=O)S3 + CS(=O)(=O)CCNCc1ccc(-c2ccc3ncnc(Nc4ccc(OCc5cccc(F)c5)c(Cl)c4)c3c2)o1 [Lapatinib] (partner 2 µM)
Summary of the method: as §1

| Cell Line | relative viability ([1]; first compound 0.01 µM) | relative viability ([1]; first compound 0.03162 µM) | relative viability ([1]; first compound 0.1 µM) | relative viability ([1]; first compound 0.3162 µM) | relative viability ([1]; first compound 1 µM) | relative viability ([2]; first compound 0.01 µM) | relative viability ([2]; first compound 0.03162 µM) | relative viability ([2]; first compound 0.1 µM) | relative viability ([2]; first compound 0.3162 µM) | relative viability ([2]; first compound 1 µM) | relative viability ([3]; first compound 0.01 µM) | relative viability ([3]; first compound 0.03162 µM) | relative viability ([3]; first compound 0.1 µM) | relative viability ([3]; first compound 0.3162 µM) | relative viability ([3]; first compound 1 µM) | relative viability ([4]; first compound 0.02 µM) | relative viability ([4]; first compound 0.06325 µM) | relative viability ([4]; first compound 0.2 µM) | relative viability ([4]; first compound 0.6325 µM) | relative viability ([4]; first compound 2 µM) |
| --- | --- | --- | --- | --- | --- | --- | --- | --- | --- | --- | --- | --- | --- | --- | --- | --- | --- | --- | --- | --- |
| NCI-H1915 | 0.374 | 0.367 | 0.365 | 0.354 | 0.367 | 0.525 | 0.533 | 0.532 | 0.529 | 0.556 | 0.675 | 0.826 | 0.852 | 0.688 | 0.784 | 1.01 | 1.1 | 1.02 | 0.928 | 0.971 |
| NCI-H2405 | 0.394 | 0.432 | 0.377 | 0.394 | 0.371 | 0.523 | 0.586 | 0.52 | 0.553 | 0.547 | 0.818 | 0.807 | 0.668 | 0.758 | 0.686 | 1.24 | 1.39 | 1.13 | 1.11 | 0.323 |
| NCI-H322M | 0.791 | 0.663 | 0.774 | 0.696 | 0.845 | 0.493 | 0.43 | 0.472 | 0.491 | 0.521 | 0.887 | 0.744 | 0.848 | 0.788 | 0.85 | 0.428 | 0.573 | 0.61 | 0.656 | 0.368 |
| NCI-H2170 | 0.374 | 0.428 | 0.448 | 0.393 | 0.341 | 0.426 | 0.389 | 0.416 | 0.427 | 0.39 | 0.736 | 0.811 | 0.724 | 0.795 | 1.24 | 0.278 | 0.271 | 0.272 | 0.251 | 0.246 |
| NCI-H1395 | 0.436 | 0.433 | 0.368 | 0.393 | 0.373 | 0.603 | 0.587 | 0.464 | 0.458 | 0.481 | 0.63 | 0.661 | 0.665 | 0.557 | 0.415 | 1.13 | 1.06 | 1.46 | 0.935 | 0.963 |
| NCI-H358 | 0.29 | 0.296 | 0.395 | 0.317 | 0.462 | 0.139 | 0.145 | 0.133 | 0.13 | 0.145 | 0.449 | 0.268 | 0.394 | 0.372 | 0.289 | 0.554 | 0.497 | 0.461 | 0.359 | 0.274 |
| NCI-H838 | 0.446 | 0.549 | 0.612 | 0.437 | 0.305 | 0.203 | 0.203 | 0.217 | 0.22 | 0.195 | 0.299 | 0.302 | 0.272 | 0.253 | 0.234 | 1.06 | 1.09 | 0.969 | 0.827 | 0.707 |
| CAL-12T | 0.542 | 0.621 | 0.599 | 0.579 | 0.642 | 0.44 | 0.504 | 0.516 | 0.49 | 0.352 | 0.257 | 0.391 | 0.326 | 0.4 | 0.232 | 0.512 | 0.708 | 0.659 | 0.629 | 0.751 |
